From patent publication US9707283B2, “Genetically modified babesia parasites expressing protective tick antigens and uses thereof” (The United States of America as represented by the …, priority 2007, dated 2017)
In brackets after ≈: the same amount, converted by molar mass.

How the values were obtained:
B. bovis Mo7 strain = assay: Blasticidin inhibition of B. bovis growth in in vitro cultures; type: cell-based, Babesia bovis
Description: B. bovis parasites of the Mo7 strain were cultured in ˜1 ml cultures in 24 well plates containing 10% bovine red blood cells. Triplicate wells were cultured with or without increasing amounts of blasticidin added to the culture media at […], 2.4, and 4.8 μg/ml, prepared from a 5 mg/ml stock solution of blasticidin (Invitrogen) in sterile water, for three consecutive days. Culture media was replaced daily. The percentage of parasitized erythrocytes (ppe) was estimated by microscopic counting of Diff-Quik (Dade Behring) stained slides as described (Suarez and McElwain, (2008) Exp Parasitol. 118: 498-504). Percentage B. bovis inhibition was calculated by dividing the mean ppe in triplicate blasticidin treated wells by the mean ppe in triplicate control wells grown in the absence of blasticidin, and multiplying by 100.
To determine whether B. bovis growth could be inhibited with blasticidin, and to estimate the concentration of blasticidin appropriate for establishing a blasticidin/blasticidin deaminase (bsd) transfection system, B. bovis Mo7 strain parasites were cultured in the presence of varying concentrations of blasticidin ranging from 0 to 5 μg/ml in triplicate wells. The percentage of parasitized erythrocytes (ppe) in each well was determined for the first three days after splitting the cultures in each well to a starting ppe of 0.5%. […] Subsequent stable transfection experiments were performed using either 0.3 or 0.6 μg/ml, blasticidin.

[1] = test system: B. bovis control parasites transfected with pBS; assay: Growth curves of mock pBS-transfected control parasites with blasticidin; type: cell-based, Babesia bovis; details: blasticidin at 6.4 μg/ml
Description: (§1) Growth characteristics of the blasticidin selected parasite line 1-2-124 were examined and compared with mock pBS-transfected control parasites in the presence or absence of 6.4 μg/ml blasticidin. […] In addition, no differences were observed between growth rates of parasite cell line 1-2-124 and control parasites in the absence of blasticidin.

[2] = test system: B. bovis transfected parasite line 1-2-124 (gfp-bsd); assay: Growth curves of blasticidin selected parasite line 1-2-124 with blasticidin; type: cell-based, Babesia bovis; details: blasticidin at 6.4 μg/ml, 10 times higher than used for original selection
Description: as §1

[3] = test system: Plasmodium falciparum parasites; details: calculated for Plasmodium falciparum parasites, given for comparison; cited from earlier work

## CN(CC[C@H](N)CC(=O)N[C@H]1C=C[C@H](n2ccc(N)nc2=O)O[C@@H]1C(=O)O)C(=N)N [blasticidin]
B. bovis Mo7 strain; Mo7 strain, in vitro culture, after three days of drug selection, percentage of parasitized erythrocytes
  50% inhibitory concentration of blasticidin (IC50): ~0.4 µg/mL
B. bovis Mo7 strain; Mo7 strain, in vitro culture, three days
  concentration of blasticidin resulting in negligible parasite growth: 0.64 to 1.25 µg/mL
B. bovis Mo7 strain; blasticidin dose of 5 μg/ml, after three days in culture
  infected erythrocytes in stained slides: No B. bovis infected erythrocytes could be detected
[1]
  parasite growth in the presence of blasticidin: not able to grow
[2]
  parasite growth with or without blasticidin: able to grow at similar rates
[3]
  IC50: 0.35 µg/mL (≈ 0.829 µM)
